According to ChEMBL document CHEMBL1143254, “Structure-based design of novel 2-amino-6-phenyl-pyrimido[5',4':5,6]pyrimido[1,2-a]benzimidazol-5(6H)-ones as potent and orally active inhibitors of lymphocyte specific kinase (Lck): synthesis, SAR, and in vivo anti-inflammatory activity” (J Med Chem, 2008):
Values after ≈ are worked out from the molar mass of the structure shown.

Key:
[1] = target: Tyrosine-protein kinase Lck (Homo sapiens, UniProt P06239)
Description: Inhibition of Lck by HTRF assay

[2] = target: Proto-oncogene tyrosine-protein kinase Src (Homo sapiens, UniProt P12931); assay: Inhibition of Src by HTRF assay
Chain of Proto-oncogene tyrosine-protein kinase Src (P12931 2-536 limits assumed): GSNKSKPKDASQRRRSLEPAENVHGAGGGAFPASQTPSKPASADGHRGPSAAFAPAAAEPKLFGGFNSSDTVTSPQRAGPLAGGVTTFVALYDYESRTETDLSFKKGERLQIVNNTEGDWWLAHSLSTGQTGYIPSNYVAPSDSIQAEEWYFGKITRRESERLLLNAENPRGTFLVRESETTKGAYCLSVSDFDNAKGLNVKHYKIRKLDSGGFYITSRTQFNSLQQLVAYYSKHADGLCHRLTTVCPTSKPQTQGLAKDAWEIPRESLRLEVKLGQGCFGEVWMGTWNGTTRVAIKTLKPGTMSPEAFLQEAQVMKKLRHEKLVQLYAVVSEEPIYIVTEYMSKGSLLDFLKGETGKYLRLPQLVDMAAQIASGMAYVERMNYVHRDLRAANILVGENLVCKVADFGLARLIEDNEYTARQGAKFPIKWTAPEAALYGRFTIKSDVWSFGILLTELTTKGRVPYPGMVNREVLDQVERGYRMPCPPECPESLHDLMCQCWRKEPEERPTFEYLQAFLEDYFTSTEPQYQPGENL

Lymphocyte = assay: Inhibition of T cell activation in human peripheral blood lymphocytes by mixed lymphocyte reaction; format: functional, cell-based
[3] = target: Mitogen-activated protein kinase 14 (Homo sapiens, UniProt Q16539); assay: Inhibition of p38-alpha by HTRF assay
Chain of Mitogen-activated protein kinase 14 (Q16539 whole entry): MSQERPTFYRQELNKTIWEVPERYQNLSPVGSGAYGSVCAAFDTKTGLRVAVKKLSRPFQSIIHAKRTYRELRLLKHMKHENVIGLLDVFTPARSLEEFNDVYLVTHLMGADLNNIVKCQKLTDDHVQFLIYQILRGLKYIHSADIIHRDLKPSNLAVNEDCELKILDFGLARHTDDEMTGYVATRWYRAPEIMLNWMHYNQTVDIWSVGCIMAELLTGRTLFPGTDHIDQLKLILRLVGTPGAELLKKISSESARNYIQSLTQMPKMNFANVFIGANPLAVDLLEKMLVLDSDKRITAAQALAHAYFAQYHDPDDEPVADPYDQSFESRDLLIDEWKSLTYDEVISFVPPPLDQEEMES

[4] = Solubility in simulated intestinal fluid at pH 6.8; format: physicochemical
T-cell [5] = assay: Inhibition of anti-CD3/CD28-induced IL2 production in human T cells; format: functional, cell-based
[6] = target: Vascular endothelial growth factor receptor 2 (Homo sapiens, UniProt P35968); assay: Inhibition of KDR by HTRF assay
Chain of Vascular endothelial growth factor receptor 2 (P35968 whole entry): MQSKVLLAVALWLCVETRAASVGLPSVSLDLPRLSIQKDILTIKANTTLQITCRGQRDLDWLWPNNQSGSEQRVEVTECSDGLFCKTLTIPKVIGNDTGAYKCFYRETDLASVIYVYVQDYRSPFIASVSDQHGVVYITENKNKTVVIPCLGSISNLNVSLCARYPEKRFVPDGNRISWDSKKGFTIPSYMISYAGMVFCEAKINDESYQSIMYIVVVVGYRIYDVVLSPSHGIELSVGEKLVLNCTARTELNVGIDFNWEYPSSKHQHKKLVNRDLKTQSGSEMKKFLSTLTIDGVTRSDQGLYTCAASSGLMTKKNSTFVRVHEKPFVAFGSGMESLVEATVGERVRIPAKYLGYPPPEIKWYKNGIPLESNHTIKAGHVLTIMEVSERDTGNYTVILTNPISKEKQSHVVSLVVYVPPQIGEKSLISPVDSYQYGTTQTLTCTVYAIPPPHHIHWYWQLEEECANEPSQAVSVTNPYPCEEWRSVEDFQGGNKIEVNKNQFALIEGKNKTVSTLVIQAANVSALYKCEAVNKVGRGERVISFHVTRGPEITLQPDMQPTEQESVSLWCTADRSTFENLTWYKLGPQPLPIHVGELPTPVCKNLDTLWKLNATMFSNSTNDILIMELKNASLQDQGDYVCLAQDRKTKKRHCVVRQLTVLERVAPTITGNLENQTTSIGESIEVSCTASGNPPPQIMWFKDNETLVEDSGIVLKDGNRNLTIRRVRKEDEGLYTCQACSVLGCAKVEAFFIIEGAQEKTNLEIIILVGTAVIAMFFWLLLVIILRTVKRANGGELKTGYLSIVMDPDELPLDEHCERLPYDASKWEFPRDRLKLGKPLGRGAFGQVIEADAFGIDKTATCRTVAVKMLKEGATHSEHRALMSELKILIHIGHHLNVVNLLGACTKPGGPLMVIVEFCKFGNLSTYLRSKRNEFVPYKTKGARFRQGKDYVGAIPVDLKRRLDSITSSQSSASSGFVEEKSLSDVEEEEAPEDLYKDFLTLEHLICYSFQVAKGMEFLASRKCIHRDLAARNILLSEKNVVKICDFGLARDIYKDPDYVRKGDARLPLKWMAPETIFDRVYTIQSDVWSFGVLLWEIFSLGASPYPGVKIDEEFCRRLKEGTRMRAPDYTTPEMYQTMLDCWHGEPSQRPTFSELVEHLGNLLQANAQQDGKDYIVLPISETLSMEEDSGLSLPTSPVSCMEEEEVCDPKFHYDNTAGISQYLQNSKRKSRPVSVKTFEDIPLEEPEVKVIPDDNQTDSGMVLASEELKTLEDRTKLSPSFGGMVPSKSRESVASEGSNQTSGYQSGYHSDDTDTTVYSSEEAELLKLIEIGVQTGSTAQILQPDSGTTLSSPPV

[7] = AUC (0 to infinity) in Sprague-Dawley rat at 5 mg/kg, po; format: ADME, organism-based; set-up: time infinity, dose 5 mg/kg, route oral; details: plasma
[8] = target: Tyrosine-protein kinase JAK3 (Homo sapiens, UniProt P52333); assay: Inhibition of JAK3 by HTRF assay
Mus musculus [9] = assay: Inhibition of anti-CD3-induced IL2 production in BALB/c mouse serum at 10 mg/kg, po by ELISA relative to control; format: functional
T-cell [10] = assay: Inhibition of anti-CD3/CD28-induced IL2 secretion in human T cells stimulated with phorbol myristic acid and calcium ionophore
[11] = target: Ribosomal protein S6 kinase alpha-5 (Homo sapiens, UniProt O75582); assay: Inhibition of MSK1 by HTRF assay
[12] = target: Tyrosine-protein kinase ZAP-70 (Homo sapiens, UniProt P43403); assay: Inhibition of ZAP-70 by HTRF assay
Chain of Tyrosine-protein kinase ZAP-70 (P43403 whole entry): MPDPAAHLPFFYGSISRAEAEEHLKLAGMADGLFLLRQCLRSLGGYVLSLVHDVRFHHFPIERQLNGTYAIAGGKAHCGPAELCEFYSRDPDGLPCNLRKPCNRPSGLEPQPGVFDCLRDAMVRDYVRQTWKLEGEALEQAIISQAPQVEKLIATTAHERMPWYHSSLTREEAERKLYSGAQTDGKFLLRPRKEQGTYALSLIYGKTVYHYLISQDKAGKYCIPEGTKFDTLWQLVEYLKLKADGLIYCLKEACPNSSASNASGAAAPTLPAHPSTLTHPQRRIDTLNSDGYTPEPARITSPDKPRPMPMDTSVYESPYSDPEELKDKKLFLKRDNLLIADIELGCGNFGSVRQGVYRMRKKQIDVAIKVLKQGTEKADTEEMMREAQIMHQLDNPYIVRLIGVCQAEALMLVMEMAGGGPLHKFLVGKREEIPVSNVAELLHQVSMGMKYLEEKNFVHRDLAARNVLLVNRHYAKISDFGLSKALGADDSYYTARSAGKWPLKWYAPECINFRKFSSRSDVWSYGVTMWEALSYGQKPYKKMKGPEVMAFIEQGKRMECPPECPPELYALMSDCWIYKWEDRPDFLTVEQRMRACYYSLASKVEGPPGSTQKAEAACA

Rattus norvegicus [13] = assay: Inhibition of Mycobacterium tuberculosis H37Ra-induced arthritis in Lewis rat assessed as reduction of paw swelling at 20 mg/kg, po daily from day 9 to day 17 relative to control; format: functional
[14] = target: Mitogen-activated protein kinase 9 (Homo sapiens, UniProt P45984); assay: Inhibition of JNK2 by HTRF assay
[15] = target: Mast/stem cell growth factor receptor Kit (Homo sapiens, UniProt P10721); assay: Inhibition of c-Kit by HTRF assay
Chain of Mast/stem cell growth factor receptor Kit (P10721 whole entry): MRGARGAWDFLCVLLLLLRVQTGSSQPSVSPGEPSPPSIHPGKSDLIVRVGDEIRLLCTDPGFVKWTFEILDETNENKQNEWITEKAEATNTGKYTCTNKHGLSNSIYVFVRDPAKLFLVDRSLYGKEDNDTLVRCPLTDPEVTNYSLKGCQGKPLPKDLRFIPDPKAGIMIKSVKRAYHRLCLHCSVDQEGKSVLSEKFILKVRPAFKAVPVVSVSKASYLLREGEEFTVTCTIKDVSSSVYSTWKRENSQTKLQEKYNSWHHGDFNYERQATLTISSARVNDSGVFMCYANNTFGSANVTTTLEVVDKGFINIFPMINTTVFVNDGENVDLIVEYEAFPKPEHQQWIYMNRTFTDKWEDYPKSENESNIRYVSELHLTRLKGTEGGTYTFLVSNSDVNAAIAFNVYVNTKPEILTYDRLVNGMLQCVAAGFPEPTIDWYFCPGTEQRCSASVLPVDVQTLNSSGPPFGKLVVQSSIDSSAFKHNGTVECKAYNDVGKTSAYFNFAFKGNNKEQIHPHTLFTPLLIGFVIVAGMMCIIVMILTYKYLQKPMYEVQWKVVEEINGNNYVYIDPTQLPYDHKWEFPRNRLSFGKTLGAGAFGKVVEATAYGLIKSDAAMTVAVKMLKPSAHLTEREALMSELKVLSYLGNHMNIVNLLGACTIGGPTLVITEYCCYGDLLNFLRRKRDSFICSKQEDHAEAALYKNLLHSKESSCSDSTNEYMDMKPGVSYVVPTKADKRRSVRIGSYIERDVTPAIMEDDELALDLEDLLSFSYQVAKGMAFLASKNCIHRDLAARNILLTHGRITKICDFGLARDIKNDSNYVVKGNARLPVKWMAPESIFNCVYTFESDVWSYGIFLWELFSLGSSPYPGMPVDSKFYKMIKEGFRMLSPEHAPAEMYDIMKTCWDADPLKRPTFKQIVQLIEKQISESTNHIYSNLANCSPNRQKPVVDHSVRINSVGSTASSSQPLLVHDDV

Mus musculus [16] = organism: Mus musculus; assay: Inhibition of anti-CD3-induced IL2 production in BALB/c mouse serum by ELISA; format: functional
Mus musculus [17] = assay: Inhibition of anti-CD3-induced IL2 production in BALB/c mouse serum at 30 mg/kg, po by ELISA relative to control; format: functional
[18] = Oral bioavailability in Sprague-Dawley rat at 5 mg/kg; format: ADME, organism-based; details: in vivo
[19] = target: Tyrosine-protein kinase ITK/TSK (Homo sapiens, UniProt Q08881); assay: Inhibition of Itk by HTRF assay
[20] = Tmax in Sprague-Dawley rat at 5 mg/kg, po; format: ADME, organism-based; set-up: dose 5 mg/kg, route oral; details: in vivo
Rattus norvegicus [21] = assay: Antiinflammatory activity against collagen-induced arthritis in Lewis rat assessed as reduction of paw swelling at 10 mg/kg, po qd for 7 days relative to control; format: functional; set-up: scale not given: the % may be the effect or the level left
Rattus norvegicus [22] = assay: Antiinflammatory activity against collagen-induced arthritis in Lewis rat assessed as reduction of paw swelling at 0.3 mg/kg, po qd for 7 days relative to control; format: functional; set-up: scale not given: the % may be the effect or the level left
[23] = target: Tyrosine-protein kinase Lyn (Homo sapiens, UniProt P07948); assay: Inhibition of Lyn by HTRF assay
Chain of Tyrosine-protein kinase Lyn (P07948 whole entry): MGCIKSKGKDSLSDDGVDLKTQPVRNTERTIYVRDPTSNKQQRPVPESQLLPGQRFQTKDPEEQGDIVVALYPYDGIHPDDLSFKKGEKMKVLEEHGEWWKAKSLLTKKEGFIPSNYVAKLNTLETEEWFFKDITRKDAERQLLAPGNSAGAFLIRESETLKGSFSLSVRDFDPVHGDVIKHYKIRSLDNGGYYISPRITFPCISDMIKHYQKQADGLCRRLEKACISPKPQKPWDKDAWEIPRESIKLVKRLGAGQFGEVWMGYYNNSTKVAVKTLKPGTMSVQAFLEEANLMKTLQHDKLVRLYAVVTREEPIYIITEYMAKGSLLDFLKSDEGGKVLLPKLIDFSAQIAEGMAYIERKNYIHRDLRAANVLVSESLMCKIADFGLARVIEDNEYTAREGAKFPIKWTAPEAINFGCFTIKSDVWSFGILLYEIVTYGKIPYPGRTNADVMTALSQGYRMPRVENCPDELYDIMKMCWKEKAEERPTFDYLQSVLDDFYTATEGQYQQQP

[24] = Cmax in collagen-induced arthritis Lewis rat; format: ADME, organism-based; details: in vivo
[25] = Cmax in Sprague-Dawley rat at 5 mg/kg, po; format: ADME, organism-based; set-up: dose 5 mg/kg, route oral; details: in vivo
Jurkat = assay: Cytotoxicity against human Jurkat T cells assessed as cell viability after 72 hrs
[26] = target: Tyrosine-protein kinase BTK (Homo sapiens, UniProt Q06187); assay: Inhibition of Btk by HTRF assay
[27] = Half life in Sprague-Dawley rat at 2 mg/kg, iv; format: ADME, organism-based; set-up: dose 2 mg/kg, route intravenous; details: in vivo
[28] = AUC in collagen-induced arthritis Lewis rat; format: ADME, organism-based; details: plasma
Angiopoietin-1 receptor = Angiopoietin-1 receptor (Homo sapiens, UniProt Q02763); assay: Inhibition of Tie-2 by HTRF assay
[29] = Clearance in Sprague-Dawley rat at 2 mg/kg, iv; format: ADME, organism-based; set-up: dose 2 mg/kg, route intravenous; details: in vivo
Rattus norvegicus [30] = assay: Antiinflammatory activity against collagen-induced arthritis in Lewis rat assessed as reduction of paw swelling at 1 mg/kg, po qd for 7 days relative to control; format: functional; set-up: scale not given: the % may be the effect or the level left
Rattus norvegicus [31] = assay: Inhibition of Mycobacterium tuberculosis H37Ra-induced arthritis in Lewis rat assessed as reduction of paw swelling at 60 mg/kg, po daily from day 9 to day 17 relative to control; format: functional
[32] = target: Tyrosine-protein kinase SYK (Homo sapiens, UniProt P43405); assay: Inhibition of Syk by HTRF assay
[33] = target: Serine/threonine-protein kinase B-raf (Homo sapiens, UniProt P15056); assay: Inhibition of b-Raf by HTRF assay
Rattus norvegicus [34] = assay: Antiinflammatory activity against collagen-induced arthritis in po dosed Lewis rat assessed as reduction of paw swelling; format: functional
[35] = Inhibition of anti-CD3/CD28-induced human T cell proliferation
[36] = AUC (0 to infinity) in Sprague-Dawley rat at 2 mg/kg, iv; format: ADME, organism-based; set-up: time infinity, dose 2 mg/kg, route intravenous; details: plasma
Rattus norvegicus [37] = assay: Inhibition of Mycobacterium tuberculosis H37Ra-induced arthritis in po dosed Lewis rat assessed as reduction of paw swelling; format: functional
Rattus norvegicus [38] = assay: Antiinflammatory activity against collagen-induced arthritis in Lewis rat assessed as reduction of paw swelling at 3 mg/kg, po qd for 7 days relative to control; format: functional; set-up: scale not given: the % may be the effect or the level left
[39] = AUC in Mycobacterium tuberculosis H37Ra-induced arthritis Lewis rat; format: ADME, organism-based; details: plasma
[40] = Volume of distribution at steady state in Sprague-Dawley rat at 2 mg/kg, iv; format: ADME, organism-based; set-up: dose 2 mg/kg, route intravenous; details: in vivo, read-out: Vdss
[41] = target: Mitogen-activated protein kinase 3 (Homo sapiens, UniProt P27361); assay: Inhibition of Erk1 by HTRF assay
[42] = Cmax in Mycobacterium tuberculosis H37Ra-induced arthritis Lewis rat; format: ADME, organism-based; details: in vivo
Mus musculus [43] = assay: Inhibition of anti-CD3-induced IL2 production in BALB/c mouse serum at 3 mg/kg, po by ELISA relative to control; format: functional
[44] = target: Mitogen-activated protein kinase 10 (Homo sapiens, UniProt P53779); assay: Inhibition of JNK3 by HTRF assay
Rattus norvegicus [45] = assay: Inhibition of Mycobacterium tuberculosis H37Ra-induced arthritis in Lewis rat assessed as reduction of paw swelling at 10 mg/kg, po daily from day 9 to day 17 relative to control; format: functional

Chain of Tyrosine-protein kinase Lck (P06239 whole entry): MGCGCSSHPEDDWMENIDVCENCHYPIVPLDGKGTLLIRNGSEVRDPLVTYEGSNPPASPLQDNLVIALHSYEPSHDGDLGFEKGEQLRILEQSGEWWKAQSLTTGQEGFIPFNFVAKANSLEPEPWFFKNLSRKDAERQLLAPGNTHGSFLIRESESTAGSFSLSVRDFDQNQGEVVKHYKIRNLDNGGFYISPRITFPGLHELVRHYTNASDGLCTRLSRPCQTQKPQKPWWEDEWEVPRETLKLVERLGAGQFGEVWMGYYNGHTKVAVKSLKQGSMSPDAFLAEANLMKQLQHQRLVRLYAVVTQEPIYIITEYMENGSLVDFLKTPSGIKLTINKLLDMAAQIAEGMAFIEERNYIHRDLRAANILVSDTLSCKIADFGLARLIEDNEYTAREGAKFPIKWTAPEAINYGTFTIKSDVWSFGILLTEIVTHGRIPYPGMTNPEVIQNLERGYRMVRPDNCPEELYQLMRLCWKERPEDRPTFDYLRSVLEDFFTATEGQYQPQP

## COc1cc(Nc2ncc3c(=O)n(-c4c(C)cccc4C)c4nc5ccccc5n4c3n2)ccc1OCCCN1CCN(C)CC1
[1]
  IC50: 12 nM
[2]
  IC50: 180 nM
Lymphocyte
  IC50: 140 nM
[3]
  IC50: > 10 µM
[4]
  solubility: > 200 µg/mL
T-cell [5]
  IC50: 1500 nM
[6]
  IC50: 5 µM

## CN1CCN(c2ccc(Nc3ncc4c(=O)n(-c5c(Cl)cccc5Cl)c5nc6ccccc6n5c4n3)cc2)CC1
[1]
  IC50: 10 nM
[2]
  IC50: 49 nM
Lymphocyte
  IC50: 1100 nM
[6]
  IC50: 0.53 µM

## COc1ccc(Cl)cc1-n1c(=O)c2cnc(Nc3ccc(N4CCN(C)CC4)cc3)nc2n2c3ccccc3nc12
[1]
  IC50: 23 nM
[2]
  IC50: 1400 nM
Lymphocyte
  IC50: 1000 nM
[6]
  IC50: > 25 µM

## CCCCOc1ccc(-n2c(=O)c3cnc(Nc4ccc(N5CCN(C)CC5)cc4)nc3n3c4ccccc4nc23)cc1
[1]
  IC50: 4600 nM
[2]
  IC50: 8300 nM
[6]
  IC50: > 25 µM

## COc1cc(Nc2ncc3c(=O)n(-c4c(C)cccc4C)c4nc5ccccc5n4c3n2)cc(OC)c1OCCN1CCOCC1
[1]
  IC50: 10 nM
[2]
  IC50: 44 nM
Lymphocyte
  IC50: 180 nM
[3]
  IC50: > 10 µM
[4]
  solubility: 18 µg/mL (≈ 29 µM)
T-cell [5]
  IC50: 360 nM
[6]
  IC50: 1.7 µM

## COc1cc(Nc2ncc3c(=O)n(-c4c(C)cccc4C)c4nc5ccccc5n4c3n2)ccc1OCCN1CCN(C)CC1
[1]
  IC50: 19 nM
[2]
  IC50: 240 nM
Lymphocyte
  IC50: 150 nM
[3]
  IC50: > 10 µM
T-cell [5]
  IC50: 16000 nM
[6]
  IC50: 5.5 µM

## Cc1cccc(C)c1-n1c(=O)c2cnc(Nc3ccc(OCCN4CCN(C)CC4)c(F)c3)nc2n2c3ccccc3nc12
[1]
  IC50: 23 nM
[2]
  IC50: 160 nM
Lymphocyte
  IC50: 510 nM
[3]
  IC50: > 10 µM
T-cell [5]
  IC50: 2700 nM
[6]
  IC50: 7.4 µM

## Cc1cccc(C)c1-n1c(=O)c2cnc(Nc3ccc(OCCCN4CCCCC4)cc3)nc2n2c3ccccc3nc12
[1]
  IC50: 12 nM
[2]
  IC50: 160 nM
Lymphocyte
  IC50: 370 nM
[3]
  IC50: 4.3 µM
[4]
  solubility: 101 µg/mL (≈ 176 µM)
T-cell [5]
  IC50: 3600 nM
[6]
  IC50: 5.1 µM

## Cc1cccc(-n2c(=O)c3cnc(Nc4ccc(N5CCN(C)CC5)cc4)nc3n3c4ccccc4nc23)c1
[1]
  IC50: 96 nM
[2]
  IC50: 1000 nM
[6]
  IC50: > 25 µM

## Cc1cccc(C)c1-n1c(=O)c2cnc(Nc3ccc(N4CCN(C)CC4)cc3)nc2n2c3ccccc3nc12
[7]
  AUC(0-inf): 862 ng·h/mL
[8]
  IC50: 150 nM
Mus musculus [9]
  inhibition in vivo at 10 mg/kg: 28%
T-cell [10]
  IC50: 5.8 µM
[11]
  IC50: > 100 µM
[12]
  IC50: 1500 nM
Rattus norvegicus [13]
  inhibition in vivo at 20 mg/kg: 64%
[14]
  IC50: > 40 µM
[15]
  IC50: 560 nM
Lymphocyte
  IC50: 47 nM
Mus musculus [16]
  ED50: 26 mg/kg
Mus musculus [17]
  inhibition in vivo at 30 mg/kg: 56%
[18]
  bioavailability: 17%
[19]
  IC50: > 20 µM
[20]
  Tmax: 3 h
Rattus norvegicus [21]
  Activity: 95%
Rattus norvegicus [22]
  Activity: 15%
[3]
  IC50: > 10 µM
[23]
  IC50: 21 nM
[24]
  Cmax: 500 nM
[25]
  Cmax: 82 ng/mL
Jurkat
  IC50: 490 nM
[26]
  IC50: 410 nM
[27]
  half-life: 187 min
[28]
  AUC: 3.3 µM·h
Angiopoietin-1 receptor
  IC50: 750 nM
[29]
  clearance: 30 mL/min/kg
Rattus norvegicus [30]
  Activity: 21%
Rattus norvegicus [31]
  inhibition in vivo at 60 mg/kg: 90%
[32]
  IC50: 200 nM
[33]
  IC50: 540 nM
Rattus norvegicus [34]
  ED50: 3.2 mg/kg
[35]
  IC50: 530 nM
[36]
  AUC(0-inf): 1150 ng·h/mL
Rattus norvegicus [37]
  ED50: 24 mg/kg
Rattus norvegicus [38]
  Activity: 49%
[4]
  solubility: 153 µg/mL (≈ 288 µM)
[39]
  AUC: 2.7 µM·h
T-cell [5]
  IC50: 460 nM
[40]
  Vd: 7.5 L/kg
[6]
  IC50: 5.1 µM
[41]
  IC50: > 100 µM
[42]
  Cmax: 700 nM
Mus musculus [43]
  inhibition in vivo at 3 mg/kg: 15%
[44]
  IC50: 7.3 µM
Rattus norvegicus [45]
  inhibition in vivo at 10 mg/kg: 17%

## Cc1cccc(C)c1-n1c(=O)c2cnc(Nc3ccc(OCCN(C)C)cc3)nc2n2c3ccccc3nc12
[1]
  IC50: 28 nM
[2]
  IC50: 440 nM
Lymphocyte
  IC50: 84 nM
[3]
  IC50: > 10 µM
[6]
  IC50: 6.6 µM
